Consider three compounds from patent publication US20240067693A1, “POLYPEPTIDES AND USES THEREOF” (MEDIMMUNE LIMITED, priority 2020, published 2024).

In general, EC50 refers to the midpoint of the concentration-response curve.

Experiment [1] has as its target T1, human amylin receptor (calcitonin receptor co-expressed with receptor activity modifying protein, RAMP3) (hAMYR3) (Homo sapiens, UniProt O60896+P30988).
T1 construct: expressed in transfected cells
T1 sequence (P30988 25-474): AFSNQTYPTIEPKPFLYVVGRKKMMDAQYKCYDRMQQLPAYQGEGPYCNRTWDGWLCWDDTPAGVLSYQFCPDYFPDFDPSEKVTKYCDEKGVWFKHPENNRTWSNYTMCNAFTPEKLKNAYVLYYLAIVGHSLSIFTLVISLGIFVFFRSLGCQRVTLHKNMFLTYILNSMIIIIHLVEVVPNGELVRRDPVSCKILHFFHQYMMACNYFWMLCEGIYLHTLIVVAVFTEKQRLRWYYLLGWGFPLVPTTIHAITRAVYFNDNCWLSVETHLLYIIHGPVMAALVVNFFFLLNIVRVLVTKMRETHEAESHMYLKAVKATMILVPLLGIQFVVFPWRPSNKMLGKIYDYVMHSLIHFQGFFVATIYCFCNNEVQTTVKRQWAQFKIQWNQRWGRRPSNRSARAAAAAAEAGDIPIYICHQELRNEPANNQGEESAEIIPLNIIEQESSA
T1 sequence (O60896 24-148 partner): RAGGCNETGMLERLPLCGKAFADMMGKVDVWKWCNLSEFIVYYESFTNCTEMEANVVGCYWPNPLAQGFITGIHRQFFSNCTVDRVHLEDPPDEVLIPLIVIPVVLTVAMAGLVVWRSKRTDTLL
Briefly: cAMP production in 1321N1 cells with stable recombinant expression of human amylin receptor (hAMYR3). In kind it is cell-based. The settings on record: for Ratio (selectivity hAMYR vs hCTR, ratio of EC50 values at the two receptors): EC50 hCTR / EC50 hAMYR3; for EC50: cAMP, 1321N1 cells, assay buffer with 0.1% BSA, read-out: EC50 (pM) hAMYR3. In outline: (§1)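 Receptor-expressing cells (human receptors in 1321N1, rat receptors in HEK) incubated 30 min at room temperature with peptide in HBSS/HEPES pH 7.4, 0.1% BSA, 0.5 mM IBMX. cAMP read by HTRF; EC50 from 4-parameter fit as % of maximal amylin or calcitonin response.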
(In general: cAMP levels reflect the balance of adenylyl cyclase and phosphodiesterase activity.)

A further experiment has as its system lean rats. Briefly: Rat acute food intake study. The note with it: lean male Sprague Dawley rats, 20 nmol/kg subcutaneously. The class given is in vivo. The procedure, abridged:
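Male Sprague Dawley rats (n=7/group), fasted 6 h, received 20 nmol/kg test compound or 60 nmol/kg pramlintide subcutaneously 30 min before food return at dark onset. Food intake recorded automatically in home cages over 3 days, binned hourly and analysed as cumulative dark-period intake; body weight taken daily.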

The target of experiment [2] is T2, rat calcitonin receptor (rat CTR) (Rattus norvegicus, UniProt P32214).
T2 construct: expressed in transfected cells
T2 sequence (P32214 25-516): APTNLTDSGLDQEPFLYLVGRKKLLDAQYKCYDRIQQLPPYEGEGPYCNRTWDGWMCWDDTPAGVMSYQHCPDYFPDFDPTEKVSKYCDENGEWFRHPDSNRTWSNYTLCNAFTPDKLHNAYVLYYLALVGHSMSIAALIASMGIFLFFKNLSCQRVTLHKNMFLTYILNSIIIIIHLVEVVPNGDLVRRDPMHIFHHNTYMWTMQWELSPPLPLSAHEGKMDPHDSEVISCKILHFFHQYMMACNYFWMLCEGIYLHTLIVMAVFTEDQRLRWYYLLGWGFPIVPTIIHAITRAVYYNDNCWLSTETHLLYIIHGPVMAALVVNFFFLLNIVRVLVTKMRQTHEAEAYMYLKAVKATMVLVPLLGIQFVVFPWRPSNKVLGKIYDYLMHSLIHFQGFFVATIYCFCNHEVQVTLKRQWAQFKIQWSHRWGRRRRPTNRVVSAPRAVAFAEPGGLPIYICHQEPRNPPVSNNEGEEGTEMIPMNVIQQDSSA
Briefly: cAMP production in HEK cells with stable recombinant expression of rat calcitonin receptor (rat CTR). In kind it is cell-based. The note with it: assay buffer with 0.1% BSA. In outline: as §1

Experiment [3] deals with T3, human calcitonin receptor (hCTR) (Homo sapiens, UniProt P30988).
T3 construct: expressed in transfected cells
T3 sequence (P30988 25-474): T1 sequence (P30988 25-474)
Briefly: cAMP production in 1321N1 cells with stable recombinant expression of human calcitonin receptor (hCTR). The class given is cell-based. The note with it: cAMP, 1321N1 cells, assay buffer with 0.1% BSA; read-out: EC50 (pM) hCTR. In outline: as §1

Experiment [4] addresses T4, rat amylin receptor (calcitonin receptor co-expressed with receptor activity modifying protein, RAMP3) (Rat AMYR3) (Rattus norvegicus, UniProt P32214+Q9JJ73).
T4 construct: expressed in transfected cells
T4 sequence (P32214 25-516): T2 sequence (P32214 25-516)
T4 sequence (Q9JJ73 23-147 partner): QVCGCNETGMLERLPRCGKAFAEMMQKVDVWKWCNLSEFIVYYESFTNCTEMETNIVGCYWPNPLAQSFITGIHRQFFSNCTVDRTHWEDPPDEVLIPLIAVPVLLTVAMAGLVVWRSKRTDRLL
Description: cAMP production in HEK cells with stable recombinant expression of rat amylin receptor (Rat AMYR3). In kind it is cell-based. The note with it: assay buffer with 0.1% BSA. The procedure, abridged:
as §1

Each structure is given as a SMILES string. Numbered stars: 1 amine (or outer) side, 2 acyl side, 3 side chain; on linkers, the order of the positions; unused ones are H or OH. Bridge positions count the residues as written; N and C are the ends. Square brackets hold non-standard residues; d marks the D form. Side chains are listed from the residue outwards. Peptide text beside a SMILES is read from it. * marks the point of attachment. C18 diacid = O=C(O)CCCCCCCCCCCCCCCCC(=O)*; γGlu = O=C(O)[C@H](CCC(=O)[*:2])N[*:1]; αMeF = C[C@](N)(Cc1ccccc1)C(=O)O

With `CC[C@H](C)[C@H](NC(=O)[C@@H]1CCCN1C(=O)CNC(=O)[C@](C)(Cc1ccccc1)NC(=O)[C@H](CC(N)=O)NC(=O)[C@H](CC(N)=O)NC(=O)[C@H](CO)NC(=O)[C@H](CO)NC(=O)[C@H](Cc1c[nH]cn1)NC(=O)[C@H](CCCNC(=N)N)NC(=O)[C@H](CC(C)C)NC(=O)[C@H](Cc1ccccc1)NC(=O)[C@H](CC(N)=O)NC(=O)[C@H](C)NC(=O)[C@H](CC(C)C)NC(=O)[C@H](CCCNC(=N)N)NC(=O)[C@H](CCC(N)=O)NC(=O)[C@@H](NC(=O)[C@H](C)NC(=O)[C@@H]1CSSC[C@H](NC(=O)[C@@H](N)CCCCNC(=O)CC[C@H](NC(=O)CC[C@H](NC(=O)CCCCCCCCCCCCCCCCC(=O)O)C(=O)O)C(=O)O)C(=O)N[C@@H](CC(N)=O)C(=O)N[C@@H]([C@@H](C)O)C(=O)N[C@@H](C)C(=O)N[C@@H]([C@@H](C)O)C(=O)N1)[C@@H](C)O)C(=O)N[C@@H](CC(C)C)C(=O)N1CCC[C@H]1C(=O)N1CCC[C@H]1C(=O)N[C@H](C(=O)N[C@@H](CCC(=O)O)C(=O)N[C@H](C(=O)NCC(=O)N[C@@H](CO)C(=O)N[C@@H](CC(N)=O)C(=O)N[C@H](C(=O)N[C@@H](Cc1ccc(O)cc1)C(N)=O)[C@@H](C)O)C(C)C)[C@@H](C)O` [Peptide 18, K(γE-γE-C18diacid)[CNTATC]ATQRLANFLRHSSNN(αMePhe)GPILPPTEVGSNTY-amide] (H-K([γGlu-γGlu-C18 diacid])CNTATCATQRLANFLRHSSNN[αMeF]GPILPPTEVGSNTY-NH2; disulfide 2-7; N-terminus assumed), in experiment [1], the “Ratio (selectivity hAMYR vs hCTR, ratio of EC50 values at the two receptors)” value stood at 15 and the 50% effective concentration (EC50) stood at 319 pM. Moreover, in the experiment on lean rats, the “Cummulative food intake (% vehicle treated intake) At 12 h” value was determined as 45.8 % vehicle treated intake, the “Cummulative food intake (% vehicle treated intake) At 24 h” value is given as 46.9 % vehicle treated intake and the “Cummulative food intake (% vehicle treated intake) At 48 h” value was 68.8 % vehicle treated intake. Also, the EC50 in experiment [2] worked out at 3090 pM. In addition, the EC50 in experiment [3] is 4690 pM. Further, in experiment [4], the EC50 was determined as 16.5 pM.

With `CC[C@H](C)[C@H](NC(=O)[C@@H]1CCCN1C(=O)CNC(=O)[C@](C)(Cc1ccccc1)NC(=O)[C@H](CC(N)=O)NC(=O)[C@H](CC(N)=O)NC(=O)[C@H](CO)NC(=O)[C@H](CO)NC(=O)[C@H](Cc1c[nH]cn1)NC(=O)[C@H](CCCNC(=N)N)NC(=O)[C@H](CC(C)C)NC(=O)[C@H](Cc1ccccc1)NC(=O)[C@H](CC(N)=O)NC(=O)[C@H](C)NC(=O)[C@H](CC(C)C)NC(=O)[C@H](CCCNC(=N)N)NC(=O)[C@H](CCC(N)=O)NC(=O)[C@@H](NC(=O)[C@H](C)NC(=O)[C@@H]1CSSC[C@H](NC(=O)[C@@H](N)CCCCNC(=O)CC[C@H](NC(=O)CC[C@H](NC(=O)CCCCCCCCCCCCCCCCC(=O)O)C(=O)O)C(=O)O)C(=O)N[C@@H](CC(N)=O)C(=O)N[C@@H]([C@@H](C)O)C(=O)N[C@@H](C)C(=O)N[C@@H]([C@@H](C)O)C(=O)N1)[C@@H](C)O)C(=O)N[C@@H](CC(C)C)C(=O)N1CCC[C@H]1C(=O)N1CCC[C@H]1C(=O)N[C@H](C(=O)N[C@@H](CC(N)=O)C(=O)N[C@H](C(=O)NCC(=O)N[C@@H](CO)C(=O)N[C@@H](CC(N)=O)C(=O)N[C@H](C(=O)N[C@@H](Cc1ccc(O)cc1)C(N)=O)[C@@H](C)O)C(C)C)[C@@H](C)O` [Peptide 20, K(γE-γE-C18diacid)[CNTATC]ATQRLANFLRHSSNN(αMePhe)GPILPPTNVGSNTY-amide] (H-K([γGlu-γGlu-C18 diacid])CNTATCATQRLANFLRHSSNN[αMeF]GPILPPTNVGSNTY-NH2; disulfide 2-7; N-terminus assumed), the “Ratio (selectivity hAMYR vs hCTR, ratio of EC50 values at the two receptors)” value in experiment [1] came to 26. Further, the EC50 came out at 174 pM in experiment [1], 1850 pM in experiment [2], 4590 pM in experiment [3] and 10.4 pM in experiment [4]. The “Cummulative food intake (% vehicle treated intake) At 12 h” value in the experiment on lean rats was determined as 27 % vehicle treated intake. Moreover, the “Cummulative food intake (% vehicle treated intake) At 24 h” value with lean rats is recorded as 26.2 % vehicle treated intake. The “Cummulative food intake (% vehicle treated intake) At 48 h” value in the experiment on lean rats is listed as 49.7 % vehicle treated intake.

For the compound `CC[C@H](C)[C@H](NC(=O)[C@@H]1CCCN1C(=O)CNC(=O)[C@](C)(Cc1ccccc1)NC(=O)[C@H](CC(N)=O)NC(=O)[C@H](CC(N)=O)NC(=O)[C@H](CO)NC(=O)[C@H](CO)NC(=O)[C@H](Cc1c[nH]cn1)NC(=O)[C@@H](NC(=O)[C@H](CC(C)C)NC(=O)[C@H](Cc1ccccc1)NC(=O)[C@H](CC(N)=O)NC(=O)[C@H](C)NC(=O)[C@H](CC(C)C)NC(=O)[C@H](CCCNC(=N)N)NC(=O)[C@H](CCC(N)=O)NC(=O)[C@@H](NC(=O)[C@H](C)NC(=O)[C@@H]1CSSC[C@H](NC(=O)[C@@H](N)CCCCNC(=O)CC[C@H](NC(=O)CC[C@H](NC(=O)CCCCCCCCCCCCCCCCC(=O)O)C(=O)O)C(=O)O)C(=O)N[C@@H](CC(N)=O)C(=O)N[C@@H]([C@@H](C)O)C(=O)N[C@@H](C)C(=O)N[C@@H]([C@@H](C)O)C(=O)N1)[C@@H](C)O)C(C)C)C(=O)N[C@@H](CC(C)C)C(=O)N1CCC[C@H]1C(=O)N1CCC[C@H]1C(=O)N[C@H](C(=O)N[C@@H](CCCNC(=N)N)C(=O)N[C@H](C(=O)NCC(=O)N[C@@H](CO)C(=O)N[C@@H](CC(N)=O)C(=O)N[C@H](C(=O)N[C@@H](Cc1ccc(O)cc1)C(N)=O)[C@@H](C)O)C(C)C)[C@@H](C)O` [Peptide 24, K(γE-γE-C18diacid)[CNTATC]ATQRLANFLVHSSNN(αMePhe)GPILPPTRVGSNTY-amide] (H-K([γGlu-γGlu-C18 diacid])CNTATCATQRLANFLVHSSNN[αMeF]GPILPPTRVGSNTY-NH2; disulfide 2-7; N-terminus assumed), in experiment [1], the “Ratio (selectivity hAMYR vs hCTR, ratio of EC50 values at the two receptors)” value is 15 and the EC50 is 127 pM. Also, in the experiment on lean rats, the “Cummulative food intake (% vehicle treated intake) At 12 h” value came to 18.7 % vehicle treated intake, the “Cummulative food intake (% vehicle treated intake) At 24 h” value was determined as 19.4 % vehicle treated intake and the “Cummulative food intake (% vehicle treated intake) At 48 h” value amounted to 40.6 % vehicle treated intake. Besides, in experiment [2], the EC50 worked out at 755 pM. Besides, in experiment [3], the concentration for a half-maximal effect (EC50) worked out at 1860 pM. Also, the half-maximal effective concentration (EC50) in experiment [4] amounted to 17.7 pM.
